Measured values as given in ChEMBL document CHEMBL1201862, “PubChem BioAssay data set” (2004).
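Tested at 5 concentrations; 48 h exposure; 96-well plates; endpoints linearly interpolated, else capped at highest concentration. GI50 = concentration required for 50% inhibition of growth.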 The source made the active and inactive calls. Rule as the data show it: active = GI50 up to about 1.1 µM and inactive = higher.

What was measured:
Test in all cases: NCI-60 cell line screen, 48 h
[1] = tested on: 786-0
[2] = tested on: SNB-75
[3] = tested on: CCRF-CEM
[4] = tested on: T47D
[5] = tested on: HOP-62
[6] = tested on: BT-549
[7] = tested on: NCI-H226
[8] = tested on: DU-145
[9] = tested on: A549
[10] = tested on: MDA-MB-231
[11] = tested on: Hs-578T
[12] = tested on: RPMI-8226
[13] = tested on: SNB-19
[14] = tested on: M14
[15] = tested on: NCI/ADR-RES
[16] = tested on: NCI-H460
[17] = tested on: SF-295
[18] = tested on: MDA-MB-435
[19] = tested on: MDA-N
[20] = tested on: EKVX

Structure (SMILES)	GI50 [1]	GI50 [2]	GI50 [3]	GI50 [4]	GI50 [5]	GI50 [6]	GI50 [7]	GI50 [8]	GI50 [9]	GI50 [10]	GI50 [11]	GI50 [12]	GI50 [13]	GI50 [14]	GI50 [15]	GI50 [16]	GI50 [17]	GI50 [18]	GI50 [19]	GI50 [20]
CCCc1cn2c(/C=N/NC(=N)N)c(-c3ccc(Cl)c([N+](=O)[O-])c3)nc2s1	1.8 µM (inactive)	1.74 µM (inactive)	0.192 µM (active)	1.42 µM (inactive)	1.88 µM (inactive)	1.68 µM (inactive)	1.99 µM (inactive)	1.77 µM (inactive)	1.73 µM (inactive)	1.86 µM (inactive)	2.01 µM (inactive)	1.64 µM (inactive)	1.5 µM (inactive)	1.91 µM (inactive)	2.21 µM (inactive)	2.1 µM (inactive)	1.66 µM (inactive)	1.75 µM (inactive)		
O=C(Nc1ccc2nc(-c3ccccc3)cn2c1)Oc1ccccc1	91 µM (inactive)	2.99 µM (inactive)	39.7 µM (inactive)	19.1 µM (inactive)	> 100 µM (inactive)	> 100 µM (inactive)	> 100 µM (inactive)	41.7 µM (inactive)	55.5 µM (inactive)	> 100 µM (inactive)	> 100 µM (inactive)		73.6 µM (inactive)	39.2 µM (inactive)	33.8 µM (inactive)	33.1 µM (inactive)	57.9 µM (inactive)	13.9 µM (inactive)	14 µM (inactive)	80 µM (inactive)
COC(=O)CCc1cc(OC)c2oc(-c3ccc(OC)c(OC)c3)c(CO)c2c1	> 100 µM (inactive)		> 100 µM (inactive)	86.7 µM (inactive)	> 100 µM (inactive)	> 100 µM (inactive)	> 100 µM (inactive)	> 100 µM (inactive)	> 100 µM (inactive)	> 100 µM (inactive)	> 100 µM (inactive)	99.5 µM (inactive)	> 100 µM (inactive)	> 100 µM (inactive)	> 100 µM (inactive)	> 100 µM (inactive)	> 100 µM (inactive)	> 100 µM (inactive)	> 100 µM (inactive)	> 100 µM (inactive)
NC1CC(=O)c2cc(Cl)sc21 (stereo unspecified)	> 100 µM (inactive)	> 100 µM (inactive)	> 100 µM (inactive)	> 100 µM (inactive)	> 100 µM (inactive)	> 100 µM (inactive)	> 100 µM (inactive)	> 100 µM (inactive)	> 100 µM (inactive)	> 100 µM (inactive)	> 100 µM (inactive)		> 100 µM (inactive)	> 100 µM (inactive)	> 100 µM (inactive)	> 100 µM (inactive)	> 100 µM (inactive)	> 100 µM (inactive)	> 100 µM (inactive)	> 100 µM (inactive)
COc1cc(C#CC(=O)OC/C=C/c2ccc3c(c2)OCO3)cc(OC)c1OC	29.8 µM (inactive)		18.9 µM (inactive)	59.6 µM (inactive)	24 µM (inactive)	19.4 µM (inactive)	21.4 µM (inactive)	42.6 µM (inactive)	33.7 µM (inactive)	25.8 µM (inactive)	22.2 µM (inactive)	20.5 µM (inactive)	42.9 µM (inactive)	24 µM (inactive)	20 µM (inactive)	24.9 µM (inactive)	36.1 µM (inactive)	18.5 µM (inactive)	18.5 µM (inactive)	31.6 µM (inactive)
OC1=C2c3ccccc3NC2Oc2cc(F)ccc21 (stereo unspecified)	16 µM (inactive)		2.22 µM (inactive)	19.2 µM (inactive)	17.7 µM (inactive)	16 µM (inactive)	22.4 µM (inactive)	18.5 µM (inactive)	19.5 µM (inactive)	16.1 µM (inactive)	34.7 µM (inactive)		20.3 µM (inactive)	17.3 µM (inactive)	16.2 µM (inactive)	18.5 µM (inactive)	14.7 µM (inactive)	17.1 µM (inactive)	15.8 µM (inactive)	3.6 µM (inactive)
C[C@@H]1CCC[C@]2(C)O[C@H]2CC[C@@](C)(O)[C@@H]2CC3=C(CO)C(=O)O[C@H]3[C@H]1O2	> 50 µM (inactive)	> 50 µM (inactive)	34.1 µM (inactive)	> 50 µM (inactive)	> 50 µM (inactive)	> 50 µM (inactive)	> 50 µM (inactive)	> 50 µM (inactive)	> 50 µM (inactive)	> 50 µM (inactive)	> 50 µM (inactive)	28.1 µM (inactive)	> 50 µM (inactive)	> 50 µM (inactive)	> 50 µM (inactive)	> 50 µM (inactive)	> 50 µM (inactive)	> 50 µM (inactive)		> 50 µM (inactive)
CCC[C@H](C)C[C@H](C)C[C@H](C)/C=C(\C)[C@@H](O)[C@@H](C)C(=O)CC	20.1 µM (inactive)	49.9 µM (inactive)	24.3 µM (inactive)	23.6 µM (inactive)	20.4 µM (inactive)	23.4 µM (inactive)	21 µM (inactive)	23.5 µM (inactive)	19.9 µM (inactive)	25.3 µM (inactive)	25 µM (inactive)	23.2 µM (inactive)	20.3 µM (inactive)	19.8 µM (inactive)	17 µM (inactive)	24 µM (inactive)	22.9 µM (inactive)	20.6 µM (inactive)		18.8 µM (inactive)
Cc1cc(S(=O)(=O)N=C2NCC(C)(C)CN2)c(S)cc1Cl	32.1 µM (inactive)	48.5 µM (inactive)		42.1 µM (inactive)	52.6 µM (inactive)	29.5 µM (inactive)	32.1 µM (inactive)	83.6 µM (inactive)	19 µM (inactive)	43.4 µM (inactive)	32 µM (inactive)		36.6 µM (inactive)	31.9 µM (inactive)	50.8 µM (inactive)	27.3 µM (inactive)		23.2 µM (inactive)	22.2 µM (inactive)	48.8 µM (inactive)
Cc1ccc2c(c1)C(O)(c1ccccc1)CCS2 (stereo unspecified)	32.5 µM (inactive)	48.2 µM (inactive)		28.2 µM (inactive)	33.7 µM (inactive)	27.3 µM (inactive)	27.5 µM (inactive)	46.3 µM (inactive)	32.8 µM (inactive)	18 µM (inactive)	34.1 µM (inactive)		59.6 µM (inactive)	25.4 µM (inactive)	34 µM (inactive)	34.8 µM (inactive)	30.1 µM (inactive)	27.7 µM (inactive)		51.4 µM (inactive)
O=[N+]([O-])C(C(Cl)=C(Cl)Cl)=C(N1CCCCC1)N1CCCCC1	> 100 µM (inactive)	> 100 µM (inactive)	41.9 µM (inactive)	45.6 µM (inactive)	> 100 µM (inactive)	> 100 µM (inactive)	> 100 µM (inactive)	> 100 µM (inactive)	> 100 µM (inactive)	> 100 µM (inactive)	13.8 µM (inactive)	84.1 µM (inactive)	1.95 µM (inactive)	> 100 µM (inactive)	> 100 µM (inactive)	> 100 µM (inactive)	> 100 µM (inactive)		68.2 µM (inactive)	> 100 µM (inactive)
Nc1c(C(=O)O)nnc2cc(Cl)ccc12	> 100 µM (inactive)	> 100 µM (inactive)	> 100 µM (inactive)	> 100 µM (inactive)	> 100 µM (inactive)	> 100 µM (inactive)	> 100 µM (inactive)	> 100 µM (inactive)	> 100 µM (inactive)	> 100 µM (inactive)	> 100 µM (inactive)		> 100 µM (inactive)	> 100 µM (inactive)	> 100 µM (inactive)	> 100 µM (inactive)	> 100 µM (inactive)	> 100 µM (inactive)	> 100 µM (inactive)	> 100 µM (inactive)
CC[C@]12C=CCN3CCC4(c5cc([C@@]6(C(=O)OC)CC7CN(CCc8c6[nH]c6ccccc86)C[C@@H]6CCCC[C@H]76)c(OC)cc5N(C)C4[C@](O)(C(=O)OC)C1OC(C)=O)[C@@H]32 (stereo partly specified)	< 0.01 µM (active)		< 0.01 µM (active)	18.2 µM (inactive)	< 0.01 µM (active)	1.32 µM (inactive)	< 0.01 µM (active)	< 0.01 µM (active)	< 0.01 µM (active)	< 0.01 µM (active)	< 0.01 µM (active)	< 0.01 µM (active)	< 0.01 µM (active)	< 0.01 µM (active)	0.0148 µM (active)	< 0.01 µM (active)	< 0.01 µM (active)	< 0.01 µM (active)	< 0.01 µM (active)	
COc1cc2cc[n+](C)c(Cc3ccc(Oc4cc(Cc5c6cc(OC)c(OC)cc6cc[n+]5C)ccc4OC)cc3)c2cc1OC	> 100 µM (inactive)	> 100 µM (inactive)	> 100 µM (inactive)	> 100 µM (inactive)	> 100 µM (inactive)	> 100 µM (inactive)	> 100 µM (inactive)	> 100 µM (inactive)	> 100 µM (inactive)	> 100 µM (inactive)	> 100 µM (inactive)	> 100 µM (inactive)	> 100 µM (inactive)	> 100 µM (inactive)		> 100 µM (inactive)	59.2 µM (inactive)	> 100 µM (inactive)	> 100 µM (inactive)	> 100 µM (inactive)
Nc1nc2[nH]cc(CCc3ccc(C(=O)N[C@@H](CCC(=O)O)C(=O)O)cc3)c2c(=O)[nH]1 [PEMETREXED]	< 0.0104 µM (active)	> 100 µM (inactive)		> 100 µM (inactive)	> 100 µM (inactive)	> 100 µM (inactive)	> 100 µM (inactive)	> 100 µM (inactive)	1.4 µM (inactive)	10.3 µM (inactive)	> 100 µM (inactive)		> 100 µM (inactive)	> 100 µM (inactive)		0.0359 µM (active)	0.418 µM (active)	> 100 µM (inactive)	> 100 µM (inactive)	> 100 µM (inactive)
